From patent US3959283A, “Amino-derivatives of 1,4-benzodioxan” (Laboratoire L. Lafon, priority 1974, dated 1976)
Where a name gives a salt, the structure may show the parent alone.

How the values were obtained:
[1] = tested on: central vagus; assay: Effect on the amines and reflexes: stimulation of the central vagus; conditions: in vivo
Description: (§1) In Table III below, the effects of the products on the amines and the reflexes have been summarised.

[2] = tested on: acetylcholine; assay: Effect on the amines and reflexes: acetylcholine; conditions: in vivo
Description: as §1

[3] = tested on: peripheral vagus; assay: Effect on the amines and reflexes: stimulation of the peripheral vagus; conditions: in vivo
Description: as §1

[4] = tested on: DMPP; assay: Effect on the amines and reflexes: DMPP; conditions: in vivo
Description: as §1

[5] = tested on: adrenalin; assay: Effect on the amines and reflexes: adrenalin; conditions: in vivo
Description: as §1

[6] = Acute intravenous toxicity in mice, products of Examples 10 to 13 (LD50); conditions: mouse, in vivo, i.v., group consisting solely of female mice
Description: (a) determined on a group of male and female mice,
(b) determined on a group consisting solely of female mice.

[7] = tested on: adrenergic receptors; assay: Inhibition/reversal of tension effects of adrenalin, intravenous (products of Examples 11 to 13); format: in vivo; conditions: i.v.
Description: the doses of CRL 40,150 from 0.5 to 4 mg/kg being administered successively.

COc1cc(OC)c(C(=O)CN2CCN(CC3COc4ccccc4O3)CC2)c(OC)c1 (centres unmarked) [Example 13, 1-[2-(1,4-Benzodioxanyl)-methyl]-4-(2,4,6-trimethoxyphenacyl)-piperazine dihydrochloride]
Effect on the amines and reflexes: stimulation of the central vagus [1]: slightly reduced
Effect on the amines and reflexes: acetylcholine [2]: no change
Effect on the amines and reflexes: stimulation of the peripheral vagus [3]: not changed
Effect on the amines and reflexes: DMPP [4]: effect reversed
Effect on the amines and reflexes: adrenalin [5]: reversal
LD50 [6]: 58 mg/kg
dose from which the hypertensive effect of adrenalin is reduced [7]: ≥ 0.1 mg/kg
dose from which the hypotensive effect appears ([7]; average of three different experiments): ≥ 0.2 mg/kg
